Data taken from publication PMC10292217, “Gene-nutrient interactions that impact magnesium homeostasis increase risk for neural tube defects in mice exposed to dolutegravir” (Frontiers in Cell and Developmental Biology, 2023).
Like-named read-outs stand apart in the source and are kept apart here.

Columns and labels:
[1] = Plasma DTG pharmacokinetics (LC-MS/MS, NCA) in LM/Bc mice; type: in vivo, mouse; conditions: for Tmax / half-life / Cmax / AUC(0-t): female, mouse, plasma; for half-life: read-out: t½ (converted); for Cmax / AUC(0-t): high Mg2+ soy diet; for AUC(0-t): read-out: AUC 0-24
Experimental: Baseline blood samples were collected via cheek bleed (submandibular vein) from all animals prior to timed matings, and again on GD 9.5. A Goldenrod sterile lancet (MEDIpoint, Inc., Mineola, NY) was used to lance the submandibular vein, and 3-4 drops (∼100 µL) of blood was collected into a Microvette CB 300 Lithium Heparin plasma separator tube (SARSTEDT AG and Co., Germany) and then centrifuged at 2000 g for 8 min. Plasma samples were frozen at −80 °C for LCMS analysis of DTG or ICP-MS determination of cations. DTG detection and quantification was performed at Creighton University using a previously published method ([Bennetto-Hood et al., 2014]) with minor modifications. Briefly, a seven-point calibration curve ranging from 0.1 to 100 μg/mL was challenged with quality control vials at known concentrations of 5, 20, and 80 μg/mL. All controls and calibrators with known drug concentrations were added to DTG-free mouse plasma. To initiate protein precipitation, 120 µL of acetonitrile containing 10 ng/mL of d5- DTG internal standard (Cayman Chemical, Ann Arbor, MI) was added to 20 µL mouse plasma (calibrators, controls, unknown samples), and mixed for 2 min on an orbital shaker (1500 rpm), followed by centrifugation at 2,655 g for 5 min. […] LC-MSMS separation was achieved using Agilent 1200 liquid chromatography devices and an AB Sciex 3200 Q-Trap mass spectrometer. The mobile phase consisted of an isocratic gradient of 0.1% formic acid in water:0.1% formic acid in acetonitrile (60:40) with a flow rate of 0.475 mL/min across an XBridge C18 column (Waters, Milford, MA, United States). […] Strains and treatments were compared by 2-way ANOVA followed by post hoc analyses. Pairwise comparisons of the proportion of affected embryos in each litter between strains and treatments were evaluated by the Fisher least significant difference method. Index value pairwise comparisons were evaluated using the Kruskal–Wallis nonparametric test in Sigma XL (v9.0). Comparisons of cation levels in urine and plasma between strains and between diets as well as the effect of DTG on the incidence of NTDs in LM/Bc dams was performed by one-way ANOVA followed by Dunnett’s multiple comparisons test using GraphPad Prism version 9.5.0 for Windows. The level of significance p < 0.05 was used for all analyses. DTG pharmacokinetics were evaluated by noncompartmental analysis (NCA) using PKsolver ([Zhang et al., 2010]).

[2] = ref Zash et al., cited from earlier work
C57BL/6J mice = test system: C57BL/6J mice; set-up: method as in Mohan et al., 2021; conditions: ref Mohan et al., 2021, cited from earlier work
[3] = test system: human embryonic stem cell (hESC) lines; set-up: method as in Smith et al., 2022; conditions: 2 different hESC lines; ref Smith et al., 2022; cited from earlier work
rabbits = conditions: 2020, cited from earlier work
zebrafish embryos = conditions: exposure initiated at 3 h post-fertilization; ref Cabrera et al., 2019; cited from earlier work
[4] = 750 mg/kg/day, pregnant LM/Bc mice, 10 daily oral doses DTG750
[5] = 750 mg/kg/day, pregnant LM/Bc mice, 10 daily oral doses DTG750 GD 0.5-GD 9.5
[6] = 750 mg/kg, non-pregnant LM/Bc mice, single oral dose DTG750
[7] = non-pregnant LM/Bc mice, single oral dose DTG 750 mg/kg
[8] = non-pregnant mouse single dose DTG750 vs human 50 mg single dose
[9] = non-pregnant mouse single dose DTG750 vs human 100 mg single dose
[10] = non-pregnant mouse single dose DTG750 vs human 100 mg × 7d
[11] = pregnant mouse 10 daily doses DTG750 vs pregnant women 2nd trimester 50 mg/d

SMILES: C[C@@H]1CCO[C@H]2Cn3cc(C(=O)NCc4ccc(F)cc4F)c(=O)c(O)c3C(=O)N12 [DTG, Dolutegravir]
- Tmax [1, 4]: 2 h
- half-life [1, 4]: 4.4 h
- Cmax [1, 5]: 128 µg/mL
- AUC(0-t) [1, 5]: 847 µg·h/mL
- Tmax [1, 6]: 2 h
- half-life [1, 6]: 6.3 h
- Cmax [1, 7]: 133 µg/mL
- AUC(0-t) [1, 7]: 1300 µg·h/mL
- AUC 0-24, mouse multiplication factor vs human [1, 8]: 18.4 x
- Cmax, mouse multiplication factor vs human [1, 8]: 28.9 x
- AUC 0-24, mouse multiplication factor vs human [1, 9]: 9.9 x
- Cmax, mouse multiplication factor vs human [1, 9]: 16.4 x
- AUC 0-24, mouse multiplication factor vs human [1, 10]: 14.1 x
- Cmax, mouse multiplication factor vs human [1, 10]: 19.8 x
- AUC 0-24, mouse multiplication factor vs human [1, 11]: 17.8 x
- Cmax, mouse multiplication factor vs human [1, 11]: 35.3 x
- NTD prevalence ([2]; 4/426 infants exposed to DTG from conception, 2018): .94%
- prevalence of DTG-NTDs ([2]; follow-up study, 5/1683 deliveries, 2019): .30%
- increase in the prevalence of NTDs ([2]; women who began DTG prior to conception, 2018): 9 fold
- NTD-affected litters (C57BL/6J mice; 2.5 mg/kg/d oral DTG co-formulated with TDF and FTC from GD 0.5, folate-sufficient diet, 5/150 litters): 3.3%
- NTDs observed (C57BL/6J mice; 5x higher dose, n = 111 litters): no NTDs were observed
- effect on hESC [3]: cytotoxicity and a dose-dependent loss of pluripotency
- DTG-related maternal or developmental toxicity (rabbits; oral doses up to 1000 mg/kg/d, GD 6 to GD 18, ref Stanislaus et al.): no significant evidence
- NOAEL (rabbits; preclinical studies, ref Stanislaus et al.): 1000 mg/kg/day
- mortality (zebrafish embryos): Significant mortality
